ChEMBL document CHEMBL1146765, “Synthesis and biological activity of some structural modifications of pancratistatin” (2004)

Assays:
P388 = test: Tested for growth inhibition activity against murine P388 lymphocytic leukemia; assay type: functional, Mus musculus
NCI-H460 = test: Tested for growth inhibition activity against lung NCI-H460 human cancer cell; assay type: functional
BXPC-3 = test: Tested for growth inhibition activity against pancreas BXPC-3 human cancer cell; assay type: functional
MCF7 = test: Tested for growth inhibition activity against breast MCF-7 human cancer cell; assay type: functional
DU-145 = test: Tested for growth inhibition activity against prostate DU-145 human cancer cell; assay type: functional
SF-268 = test: Tested for growth inhibition activity against CNS SF-268 human cancer cell; assay type: functional
KM-20L2 = test: Tested for growth inhibition activity against colon KM20L2 human cancer cell; assay type: functional

**Q.** Which results are given for `COc1ccc2c(c1)[C@H]1[C@@H](O)[C@H](O)[C@@H](O)[C@@H](O)[C@@H]1NC2=O`?
**A.** Growth-inhibitory concentration (P388): 4.3 µg/mL; Growth-inhibitory concentration (NCI-H460): 2.8 µg/mL; Growth-inhibitory concentration (BXPC-3): 4.9 µg/mL; Growth-inhibitory concentration (MCF7): 4.4 µg/mL; Growth-inhibitory concentration (DU-145): 2.6 µg/mL; Growth-inhibitory concentration (SF-268): 3.3 µg/mL; Growth inhibitory concentration (KM-20L2): 3.6 µg/mL

**Q.** Which Growth-inhibitory concentration (P388) does the source give for `COC(=O)N[C@H]1[C@H](OC(C)=O)[C@H](OC(C)=O)[C@@H](OC(C)=O)[C@H](OC(C)=O)[C@@H]1c1cccc(OC)c1` here?
**A.** The Growth-inhibitory concentration was 19.3 µg/mL.

**Q.** And the Growth-inhibitory concentration (NCI-H460)?
**A.** The Growth-inhibitory concentration was greater than 10 µg/mL.

**Q.** What about the Growth-inhibitory concentration (BXPC-3) of the same molecule?
**A.** Its Growth-inhibitory concentration is greater than 10 µg/mL.

**Q.** And the Growth-inhibitory concentration (MCF7)?
**A.** Its Growth-inhibitory concentration is greater than 10 µg/mL.

**Q.** And the Growth-inhibitory concentration (DU-145)?
**A.** The Growth-inhibitory concentration was greater than 10 µg/mL.

**Q.** And the Growth-inhibitory concentration (SF-268)?
**A.** The Growth-inhibitory concentration was greater than 10 µg/mL.

**Q.** What about the Growth inhibitory concentration (KM-20L2) of the same molecule?
**A.** The Growth inhibitory concentration was greater than 10 µg/mL.

**Q.** For `O=C1N[C@H]2[C@H](O)[C@H](O)CC[C@@H]2c2cc3c(cc21)OCO3`, which Growth-inhibitory concentration (P388) is on record?
**A.** Its Growth-inhibitory concentration is 1.39 µg/mL.

**Q.** What about the Growth-inhibitory concentration (NCI-H460) of the same molecule?
**A.** The Growth-inhibitory concentration was greater than 10 µg/mL.

**Q.** What about the Growth-inhibitory concentration (BXPC-3) of the same molecule?
**A.** The Growth-inhibitory concentration was greater than 10 µg/mL.

**Q.** What about the Growth-inhibitory concentration (MCF7) of the same molecule?
**A.** The Growth-inhibitory concentration was greater than 10 µg/mL.

**Q.** What about the Growth-inhibitory concentration (DU-145) of the same molecule?
**A.** Its Growth-inhibitory concentration is greater than 10 µg/mL.

**Q.** And the Growth-inhibitory concentration (SF-268)?
**A.** The Growth-inhibitory concentration was greater than 10 µg/mL.

**Q.** What about the Growth inhibitory concentration (KM-20L2) of the same molecule?
**A.** Its Growth inhibitory concentration is greater than 10 µg/mL.

**Q.** What does the source list for `COc1ccc2c(c1)[C@@H]1[C@@H](NC2=O)[C@H](OC(C)=O)[C@H](OC(C)=O)[C@@H](OC(C)=O)[C@@H]1OC(C)=O`?
**A.** Growth-inhibitory concentration (P388): 2.1 µg/mL; Growth-inhibitory concentration (NCI-H460): >10 µg/mL; Growth-inhibitory concentration (BXPC-3): >10 µg/mL; Growth-inhibitory concentration (MCF7): 4.6 µg/mL; Growth-inhibitory concentration (DU-145): 6.7 µg/mL; Growth-inhibitory concentration (SF-268): >10 µg/mL; Growth inhibitory concentration (KM-20L2): >10 µg/mL

**Q.** Which Growth-inhibitory concentration (P388) does the source give for `O=C1N[C@H]2[C@H](O)[C@H](O)[C@@H](O)[C@H](O)[C@@H]2c2cc3c(cc21)OCO3` here?
**A.** Its Growth-inhibitory concentration is 0.44 µg/mL.

**Q.** And the Growth-inhibitory concentration (NCI-H460)?
**A.** The Growth-inhibitory concentration was 0.29 µg/mL.

**Q.** And the Growth inhibitory concentration (KM-20L2)?
**A.** The Growth inhibitory concentration was 0.22 µg/mL.

**Q.** Which Growth-inhibitory concentration (P388) does the source give for `CC(=O)O[C@H]1[C@@H]2NC(=O)c3cc4c(cc3[C@H]2CC[C@H]1OC(C)=O)OCO4` here?
**A.** Its Growth-inhibitory concentration is 1.1 µg/mL.

**Q.** And the Growth-inhibitory concentration (NCI-H460)?
**A.** Its Growth-inhibitory concentration is greater than 10 µg/mL.

**Q.** What about the Growth-inhibitory concentration (BXPC-3) of the same molecule?
**A.** Its Growth-inhibitory concentration is greater than 10 µg/mL.

**Q.** And the Growth-inhibitory concentration (MCF7)?
**A.** The Growth-inhibitory concentration was greater than 10 µg/mL.

**Q.** And the Growth-inhibitory concentration (DU-145)?
**A.** Its Growth-inhibitory concentration is greater than 10 µg/mL.

**Q.** What about the Growth-inhibitory concentration (SF-268) of the same molecule?
**A.** The Growth-inhibitory concentration was greater than 10 µg/mL.

**Q.** What about the Growth inhibitory concentration (KM-20L2) of the same molecule?
**A.** Its Growth inhibitory concentration is greater than 10 µg/mL.

**Q.** For `O=C1N[C@@H]2C(=C[C@H](O)[C@@H](O)[C@H]2O)c2cc3c(c(O)c21)OCO3` [NARCICLASINE], which Growth-inhibitory concentration (P388) is on record?
**A.** The Growth-inhibitory concentration was 0.0012 µg/mL.

**Q.** And the Growth-inhibitory concentration (NCI-H460)?
**A.** Its Growth-inhibitory concentration is 0.032 µg/mL.

**Q.** What about the Growth-inhibitory concentration (BXPC-3) of the same molecule?
**A.** Its Growth-inhibitory concentration is 0.026 µg/mL.

**Q.** And the Growth-inhibitory concentration (MCF7)?
**A.** Its Growth-inhibitory concentration is 0.019 µg/mL.

**Q.** What about the Growth-inhibitory concentration (DU-145) of the same molecule?
**A.** Its Growth-inhibitory concentration is 0.011 µg/mL.

**Q.** What about the Growth-inhibitory concentration (SF-268) of the same molecule?
**A.** The Growth-inhibitory concentration was 0.021 µg/mL.

**Q.** What about the Growth inhibitory concentration (KM-20L2) of the same molecule?
**A.** Its Growth inhibitory concentration is 0.021 µg/mL.

**Q.** How did the Growth-inhibitory concentration (P388) turn out when `O=C1N[C@H]2[C@H](O)[C@H](O)[C@@H](O)[C@H](O)[C@@H]2c2cc3c(c(O)c21)OCO3` [PANCRATISTATIN] was run?
**A.** Its Growth-inhibitory concentration is 0.039 µg/mL.

**Q.** What about the Growth-inhibitory concentration (NCI-H460) of the same molecule?
**A.** Its Growth-inhibitory concentration is 0.048 µg/mL.

**Q.** What about the Growth-inhibitory concentration (BXPC-3) of the same molecule?
**A.** Its Growth-inhibitory concentration is 0.028 µg/mL.

**Q.** And the Growth-inhibitory concentration (MCF7)?
**A.** Its Growth-inhibitory concentration is 0.032 µg/mL.

**Q.** And the Growth-inhibitory concentration (DU-145)?
**A.** The Growth-inhibitory concentration was 0.016 µg/mL.

**Q.** What about the Growth-inhibitory concentration (SF-268) of the same molecule?
**A.** Its Growth-inhibitory concentration is 0.017 µg/mL.

**Q.** And the Growth inhibitory concentration (KM-20L2)?
**A.** The Growth inhibitory concentration was 0.062 µg/mL.
